System: TNBS induced IBS model
Assay: Colonic distension study in TNBS induced rat IBS model (pain threshold)
Type: in vivo
Settings: male SD rats, TNBS 50 mg/kg, 7 days after surgery; 10 mg/kg p.o.; FIG. 1
Protocol: [Evaluation of Therapeutic Effects on IBS in the Rat]
The pharmacological effects of the test compounds in this invention was evaluated by measuring the improvement effect against lowering of the pain threshold at colon extension stimulation in TNBS induced IBS model.
For details, please refer to the literature, Katsuyo Ohashi at al., Pharmacology, 81(2): 144-150 (2008).
The median incision was conducted under anesthesia in animals, male SD rats, 240-270 g. TNBS solution (50 mg/kg, 30% methanol) was treated at the beginning of the colon in the rats. After the treatment, the cecum is put back into the abdominal cavity. The muscle wall is then sutured. After operation the animals were housed in the normal environment, and were used for the pharmacological evaluation after 7 days from the surgery. The colon extension stimulation was used for the evaluation of the compounds, Diop L. et al., J Pharmacol Exp Ther. 302(3): 1013-22 (2002). The balloon (5 cm in length) is inserted through the anus and kept in position (tip of balloon is 5 cm from the anus). Then the balloon was progressively inflated by step of 5 mm Hg, from 0 to 70 mm Hg by using Barostat (Barostat DISTENDER II R, G & J, CANADA). The pain threshold was evaluated the pressure that corresponded to produced the first abdominal contraction (abdominal cramp: Wesselmann U et al., (1998) Neurosci Lett 246: 73-76). […]

In the case of `Cn1nc(C(=O)NCCN2CCOCC2)cc1-c1cc2cccnc2[nH]1` [Example compound 24, 1-methyl-N-[2-(morpholin-4-yl)ethyl]-5-{1H-pyrrolo[2,3-b]pyridin-2-yl}-1H-pyrazole-3-carboxamide], the “improvement effect against lowering of the pain threshold at colon extension stimulation” value is reported as “improvement effects against lowering of the pain threshold”.

— patent US8252790B2, “Pyrazole-3-carboxamide derivative having 5-HT2B receptor antagonist activity” (Raqualia Pharma Inc., priority 2008, dated 2012)
